From patent US20240409538A1, “SUBSTITUTED TRIAZOLOHETEROARYL COMPOUNDS AS USP1 INHIBITORS AND THE USE THEREOF” (IMPACT THERAPEUTICS (SHANGHAI), INC., priority 2021, published 2024)

tested on: BRCA mutant human breast cancer MDA-MB-436 cell line; experiment: Growth inhibition of MDA-MB-436 cells, CCK-8 method; assay type: cell-based; conditions: MDA-MB-436, 168 h, 7 days incubation, read-out: IC50 (nM), inhibition of proliferation of MDA-MB-436 cells, CCK-8 method
Procedure: The cells were cultured in complete medium (DMEM medium+10% FBS+Insulin+glutathione). When the confluence reached about 80%, cells were digested and gently dispensed from the bottom of the dish with a 1 mL pipette. Cell suspension was collected and centrifuged at 500 rpm for 3 min. The supernatant was discarded, and the cell pellet were re-suspended in complete medium. The cells were seeded into a culture dish at an appropriate proportion, and then cultured in a 5% CO2 incubator at 37° C. The assay was carried out when the cells were in optimum condition and the confluence was reached 80%. Cells in the logarithmic growth phase were taken to centrifugate, and the culture supernatant was removed. The cells were resuspended in refresh complete medium and counted. The resuspended cells were seeded at 3000/well in a 96-well plate and incubated at 37° C., 5% CO2 incubator overnight. The compound was prepared as below: 1000× dilution tested compound solution to 40× test compound solution by adding 5 μL 1000× compound solution to 120 μL Medium (25-fold dilution). The solution was mixed by oscillation, 0.1% DMSO was used as the control.
The next day, the 96-well plate inoculated with cells was taken out from the incubator, and the culture supernatant was removed. Then fresh medium of 195 uL/well and 5 μL/well of 40× test compound solution as mentioned above were added into the 96 well plate, respectively. Finally, the plate was incubated for 7 days in a 37° C. 5% CO2 incubator. The medium containing compound was changed on the fourth day.
CCK Method: After 7 days, 20 μL of CCK-8 was added to each well and shaken gently, then was cultured for 4 hours. The plate was shaken for 5 min after incubation, the absorbance values of 450 nm or 650 nm wavelengths were recorded respectively (OD=absorbance value of 450 nm−absorbance value of 650 nm) by using the multifunction readout instrument.
Data were analyzed by software GraphPad Prism 6.0. The inhibitory activity of compounds on cell proliferation was plotted using cell survival rate against the compound concentration as coordinates. Cell survival rate %=(ODcompound−ODbackground)/(ODDMSO−ODbackground)×100. The IC50 value was fitted by the s-shaped dose response curve equation: Y=100/(1+10^(log C−log IC50)), and C was the compound concentration.
Table 3 summarizes the inhibitory effect data (IC50) of the compounds on the proliferation of human breast cancer cells MDA-MB-436 determined by CCK-8 method.

| IC50 | SMILES |
| --- | --- |
| 1170 nM | CC(C)c1ccccc1-c1nc2c(Cc3ccc(-c4nc(C(F)(F)F)cn4C)cc3)ccnn2n1 [Example 9, 2-(2-isopropylphenyl)-8-(4-(1-methyl-4-(trifluoromethyl)-1H-imidazol-2-yl)benzyl)-[1,2,4]triazolo[1,5-b]pyridazine] |
| 226 nM | CC(C)c1ccccc1-c1nc2cccc(Cc3ccc(-c4nc(C(F)(F)F)cn4C)cc3)n2n1 [Example 10, 2-(2-isopropylphenyl)-5-(4-(1-methyl-4-(trifluoromethyl)-1H-imidazol-2-yl)benzyl)-[1,2,4]triazolo[1,5-a]pyridine] |
| 10.3 nM | Cc1cnn(C(C)C)c1-c1nc2cccc(Cc3ccc(-c4nc(C(F)(F)F)cn4C)cc3)n2n1 [Example 15, 2-(1-isopropyl-4-methyl-1H-pyrazol-5-yl)-5-(4-(1-methyl-4-(trifluoromethyl)-1H-imidazol-2-yl)benzyl)-[1,2,4]triazolo[1,5-a]pyridine] |

target: USP1/UAF1 (Homo sapiens (Human), UniProt O94782); experiment: USP1/UAF1 activity, ubiquitin-rhodamine110-glycine (Ub-Rho) assay; assay type: biochemical; conditions: 0.1 nM USP1/UAF1, 100 nM Ub-Rho, 120 minutes; read-out: IC50 (nM), inhibitory effects on USP1/UAF1 activity
Sequence (O94782 whole entry): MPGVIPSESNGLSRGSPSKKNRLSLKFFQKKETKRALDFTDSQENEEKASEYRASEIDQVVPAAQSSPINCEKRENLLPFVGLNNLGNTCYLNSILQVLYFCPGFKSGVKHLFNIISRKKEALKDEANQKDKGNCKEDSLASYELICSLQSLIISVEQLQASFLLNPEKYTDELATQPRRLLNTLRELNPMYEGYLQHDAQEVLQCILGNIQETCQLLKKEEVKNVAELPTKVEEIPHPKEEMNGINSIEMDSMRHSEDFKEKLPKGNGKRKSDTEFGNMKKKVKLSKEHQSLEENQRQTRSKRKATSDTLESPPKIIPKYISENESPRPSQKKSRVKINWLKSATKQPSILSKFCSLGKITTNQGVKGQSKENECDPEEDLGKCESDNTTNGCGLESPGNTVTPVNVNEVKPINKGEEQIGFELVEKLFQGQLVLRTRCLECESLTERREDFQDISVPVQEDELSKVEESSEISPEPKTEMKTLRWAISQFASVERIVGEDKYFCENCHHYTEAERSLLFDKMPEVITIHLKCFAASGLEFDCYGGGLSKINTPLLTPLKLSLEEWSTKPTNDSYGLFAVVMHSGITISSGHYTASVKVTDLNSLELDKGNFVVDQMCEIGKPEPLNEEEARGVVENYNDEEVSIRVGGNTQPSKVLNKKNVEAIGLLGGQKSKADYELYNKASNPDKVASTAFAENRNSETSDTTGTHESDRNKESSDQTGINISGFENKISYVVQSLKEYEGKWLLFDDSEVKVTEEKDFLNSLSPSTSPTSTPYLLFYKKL
Sequence (Q8TAF3 whole entry partner): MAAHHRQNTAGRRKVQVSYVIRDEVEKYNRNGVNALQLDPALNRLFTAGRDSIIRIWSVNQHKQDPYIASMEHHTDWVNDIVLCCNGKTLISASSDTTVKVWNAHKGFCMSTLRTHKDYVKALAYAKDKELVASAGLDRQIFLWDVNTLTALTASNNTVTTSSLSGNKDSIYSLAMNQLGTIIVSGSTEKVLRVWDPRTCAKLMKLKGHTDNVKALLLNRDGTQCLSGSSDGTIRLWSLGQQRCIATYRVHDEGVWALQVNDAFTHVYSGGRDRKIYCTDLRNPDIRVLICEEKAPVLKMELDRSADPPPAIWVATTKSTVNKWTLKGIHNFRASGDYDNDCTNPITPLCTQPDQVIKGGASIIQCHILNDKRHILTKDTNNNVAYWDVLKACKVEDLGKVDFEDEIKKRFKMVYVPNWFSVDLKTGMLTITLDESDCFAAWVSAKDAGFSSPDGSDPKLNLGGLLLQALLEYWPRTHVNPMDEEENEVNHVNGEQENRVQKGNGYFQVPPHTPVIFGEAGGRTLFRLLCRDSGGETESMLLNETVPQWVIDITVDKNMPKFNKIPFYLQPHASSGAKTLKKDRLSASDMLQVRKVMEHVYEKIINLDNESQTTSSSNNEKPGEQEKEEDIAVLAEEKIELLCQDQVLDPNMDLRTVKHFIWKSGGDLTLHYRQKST
Procedure: USP1/UAF1 activity was determined by using ubiquitin-rhodamine110-glycine (Ub-Rho; Boston Biochem) assay. Enzymatic reactions were conducted in an assay buffer (50 mM Tris-HCl, pH 7.8, 0.5 mM EDTA, 100 mM NaCl, 1 mM DTT, 0.01 BSA, and 0.01% Tween-20) that contained 0.1 nM USP1/UAF1. Each individual compound was tested at ten concentrations in the range of 0.0005 to 10 μM. The plates were incubated for 15 min to attain equilibrium, and then the enzymatic reaction was initiated by dispensing 10 μL of Ub-Rho solution (100 nM final concentration). After treating 120 minutes with Ub-Rho solution, the rhodamine fluorescence was acquired using a 480 nm excitation/540 nm emission filter set by using Envision instrument. The inhibition rate of the compound to USP1/UAF1 enzyme activity was calculated according to the following formula.
IC50 value is obtained by fitting the s-shaped dose response curve equation by using XL Fit software. The curve equation is Y=100/(1+10^(log C−log IC50)). C is the compound concentration.

| IC50 | SMILES |
| --- | --- |
| 11.2 nM | COc1ncnc(C2CC2)c1-c1nc2c(Cc3ccc(-c4nc(C(F)(F)F)cn4C)cc3)nccn2n1 [Example 18, 2-(4-cyclopropyl-6-methoxypyrimidin-5-yl)-8-(4-(1-methyl-4-(trifluoromethyl)-1H-imidazol-2-yl)benzyl)-[1,2,4]triazolo[1,5-a]pyrazine] |
| 16.1 nM | COc1ncnc(C2CC2)c1-c1nc2ccnc(Cc3ccc(-c4nc(C(F)(F)F)cn4C)cc3)n2n1 [Example 21, 2-(4-cyclopropyl-6-methoxypyrimidin-5-yl)-5-(4-(1-methyl-4-(trifluoromethyl)-1H-imidazol-2-yl)benzyl)-[1,2,4]triazolo[1,5-c]pyrimidine] |
| 11.8 nM | COc1ncnc(C2CC2)c1-c1nc2c(Cc3ccc(-c4nc(C(F)(F)F)cn4C4CC4)cc3)cccn2n1 [Example 24, 8-(4-(1-cyclopropyl-4-(trifluoromethyl)-1H-imidazol-2-yl)benzyl)-2-(4-cyclopropyl-6-methoxypyrimidin-5-yl)-[1,2,4]triazolo[1,5-a]pyridine] |
| 11.6 nM | COc1ncnc(C2CC2)c1-c1nc2c(Cc3ccc(-c4nc(C(F)(F)F)cn4C)c(F)c3)cccn2n1 [Example 25, 2-(4-cyclopropyl-6-methoxypyrimidin-5-yl)-8-(3-fluoro-4-(1-methyl-4-(trifluoromethyl)-1H-imidazol-2-yl)benzyl)-[1,2,4]triazolo[1,5-a]pyridine] |
| 39.5 nM | CCn1cc(C(F)(F)F)nc1-c1c(F)cc(Cc2cccn3nc(-c4c(OC)ncnc4C4CC4)nc23)cc1OC [Example 26, 2-(4-cyclopropyl-6-methoxypyrimidin-5-yl)-8-(4-(1-ethyl-4-(trifluoromethyl)-1H-imidazol-2-yl)-3-fluoro-5-methoxybenzyl)-[1,2,4]triazolo[1,5-a]pyridine] |
| 41.4 nM | COc1ncnc(C2CC2)c1-c1nc2c(Cc3ccc(-c4nc(C(F)(F)F)cn4C)c(F)c3)nccn2n1 [Example 30, 2-(4-cyclopropyl-6-methoxypyrimidin-5-yl)-8-(3-fluoro-4-(1-methyl-4-(trifluoromethyl)-1H-imidazol-2-yl)benzyl)-[1,2,4]triazolo[1,5-a]pyrazine] |
| 111 nM | COc1ncnc(C2CC2)c1-c1nc2c(Cc3ccc(-c4nc(C(F)(F)F)cn4C4CC4)cc3)cncn2n1 [Example 32, 8-(4-(1-cyclopropyl-4-(trifluoromethyl)-1H-imidazol-2-yl)benzyl)-2-(4-cyclopropyl-6-methoxypyrimidin-5-yl)-[1,2,4]triazolo[1,5-c]pyrimidine] |
| 94.5 nM | COc1ncnc(C2CC2)c1-c1nc2c(Cc3ccc(-c4nc(C(F)(F)F)cn4C)c(F)c3)cncn2n1 [Example 33, 2-(4-cyclopropyl-6-methoxypyrimidin-5-yl)-8-(3-fluoro-4-(1-methyl-4-(trifluoromethyl)-1H-imidazol-2-yl)benzyl)-[1,2,4]triazolo[1,5-c]pyrimidine] |
| 242 nM | CCn1cc(C(F)(F)F)nc1-c1c(F)cc(Cc2cncn3nc(-c4c(OC)ncnc4C4CC4)nc23)cc1F [Example 34, 2-(4-cyclopropyl-6-methoxypyrimidin-5-yl)-8-(4-(1-ethyl-4-(trifluoromethyl)-1H-imidazol-2-yl)-3,5-difluorobenzyl)-[1,2,4]triazolo[1,5-c]pyrimidine] |
| 5.44 nM | COc1ncnc(C2CC2)c1-c1nc2cccc(Cc3ccc(-c4nc(C(F)(F)F)cn4C)c(F)c3)n2n1 [Example 38, 2-(4-cyclopropyl-6-methoxypyrimidin-5-yl)-5-(3-fluoro-4-(1-methyl-4-(trifluoromethyl)-1H-imidazol-2-yl)benzyl)-[1,2,4]triazolo[1,5-a]pyridine] |
| 78.3 nM | COc1ncnc(C2CC2)c1-c1nc2cncc(Cc3ccc(-c4nc(C(F)(F)F)cn4C)c(F)c3)n2n1 [Example 44, 2-(4-cyclopropyl-6-methoxypyrimidin-5-yl)-5-(3-fluoro-4-(1-methyl-4-(trifluoromethyl)-1H-imidazol-2-yl)benzyl)-[1,2,4]triazolo[1,5-a]pyrazine] |

Second part, the compound before the results:

| SMILES | IC50 |
| --- | --- |
| COc1ncnc(C2CC2)c1-c1nc2c(Cc3ccc(-c4nc(C(F)(F)F)cn4C4CC4)cc3)nccn2n1 [Example 29, 8-(4-(1-cyclopropyl-4-(trifluoromethyl)-1H-imidazol-2-yl)benzyl)-2-(4-cyclopropyl-6-methoxypyrimidin-5-yl)-[1,2,4]triazolo[1,5-a]pyrazine] | 34.6 nM |
| CCn1cc(C(F)(F)F)nc1-c1c(F)cc(Cc2nccn3nc(-c4c(OC)ncnc4C4CC4)nc23)cc1F [Example 31, 2-(4-cyclopropyl-6-methoxypyrimidin-5-yl)-8-(4-(1-ethyl-4-(trifluoromethyl)-1H-imidazol-2-yl)-3,5-difluorobenzyl)-[1,2,4]triazolo[1,5-a]pyrazine] | 57.5 nM |
| COc1ncnc(C2CC2)c1-c1nc2cccc(Cc3ccc(-c4nc(C(F)(F)F)cn4C4CC4)cc3)n2n1 [Example 37, 5-(4-(1-cyclopropyl-4-(trifluoromethyl)-1H-imidazol-2-yl)benzyl)-2-(4-cyclopropyl-6-methoxypyrimidin-5-yl)-[1,2,4]triazolo[1,5-a]pyridine] | 9.53 nM |
| CCn1cc(C(F)(F)F)nc1-c1c(F)cc(Cc2cccc3nc(-c4c(OC)ncnc4C4CC4)nn23)cc1OC [Example 39, 2-(4-cyclopropyl-6-methoxypyrimidin-5-yl)-5-(4-(1-ethyl-4-(trifluoromethyl)-1H-imidazol-2-yl)-3-fluoro-5-methoxybenzyl)-[1,2,4]triazolo[1,5-a]pyridine] | 18.8 nM |
| CCn1cc(C(F)(F)F)nc1-c1c(F)cc(Cc2nccc3nc(-c4c(OC)ncnc4C4CC4)nn23)cc1F [Example 42, 2-(4-cyclopropyl-6-methoxypyrimidin-5-yl)-5-(4-(1-ethyl-4-(trifluoromethyl)-1H-imidazol-2-yl)-3,5-difluorobenzyl)-[1,2,4]triazolo[1,5-c]pyrimidine] | 732 nM |
| COc1ncnc(C2CC2)c1-c1nc2cncc(Cc3ccc(-c4nc(C(F)(F)F)cn4C4CC4)cc3)n2n1 [Example 43, 5-(4-(1-cyclopropyl-4-(trifluoromethyl)-1H-imidazol-2-yl)benzyl)-2-(4-cyclopropyl-6-methoxypyrimidin-5-yl)-[1,2,4]triazolo[1,5-a]pyrazine] | 38.9 nM |
| CCn1cc(C(F)(F)F)nc1-c1c(F)cc(Cc2cncc3nc(-c4c(OC)ncnc4C4CC4)nn23)cc1F [Example 45, 2-(4-cyclopropyl-6-methoxypyrimidin-5-yl)-5-(4-(1-ethyl-4-(trifluoromethyl)-1H-imidazol-2-yl)-3,5-difluorobenzyl)-[1,2,4]triazolo[1,5-a]pyrazine] | 99.7 nM |
